Format in all cases: physicochemical
Series [1] is described as follows: Accelerated storage stability test (48-hour, accelerated aging conditions). The conditions noted are these: 48-hour storage, AAC 40° C./75% RH. As for the experimental part: For the crystalline and amorphous forms of (−)-cibenzoline succinate prepared according to Examples 1 to 4 above, a 48-hour storage stability test was performed under accelerated aging conditions (AAC; 40° C./75% RH).

Series [2] is described as follows: Long-term storage stability at 60° C. evaluated by HT-XRPD, DSC, TGMS and UPLC. The method, then:
The high-throughput XRD of the crystalline form was analyzed under the following conditions. • Manufacturer: Bruker, USA • Model: General Area Detector Diffraction System (GADDS) • Measurement temperature: 25° C. (RT) • 2θ measurement range: 1.5 to 41.5° • Exposure time: 90 seconds • Others: Measurement of intensity and geometric parameters with a V A NTEC-500 gas area detector (Bruker, USA) 9. High-Resolution X-Ray Diffraction (XRD) Analysis
Thermogravimetric analysis coupled with mass spectroscopy for the crystalline form was performed under the following conditions. • Manufacturer: Mettler-Toledo GmbH, Switzerland • Model: TGA/DSC 3+ STARe system • Temperature range: 25 to 300° C. • Temperature rise rate: 10° C./min • Mass spectrometer: mass spectrometer Omnistar GSD 301 T2 (Pfeiffer Vacuum GmbH, Germany) 11. Differential Scanning Calorimetry (DSC) Analysis
The calorimetric analysis of the crystalline form was performed by differential scanning calorimetry (DSC) under the following conditions. • Manufacturer: Metter Toredo GmbH, Switzerland • Model: heat flux DSC3+ STARe system • Temperature rise rate: 10° C./min • Temperature range: 25 to 300° C. • N2 flow rate: 50 ml/min. 12. Karl Fischer Titration Analysis
The mass of the crystalline form was measured by ultra-performance liquid chromatography-mass spectrometer (UPLC-MS) under the following conditions. • Manufacturer: Agilent, USA • Model: Agilent 1290 • Detector 1: UV detector set at 224 nm • Detector 2: MSD XT in Positive Scan Mode • Measurement temperature: 25° C. (RT) • Column: Agilent Eclipse Plus C18 HD (50×2.1 mm; 1.8 μm) • Column temperature: 35° C. • Flow cell: 10 mm path • Gradient: Mobile phase A: 10 mM Ammonium acetate/Mobile phase B: Acetonitrile • Flow: 0.8 ml/min • Sample concentration: 0.8 mg/ml • Solvent: Water: Acetonitrile (50:50 v/v) • Injection: 1 μl • Retention time: 1.54 min 15. Analysis of Particle Size Distribution (PSD)
Crystalline form 3 of (−)-cibenzoline succinate prepared according to Example 4 was stored at 60° C. for 4 weeks, and then the long-term storage stability thereof was evaluated by HT-XRPD, DSC, TGMS and UPLC analysis.

Series [3] in a line: Dynamic vapor sorption (DVS) analysis. As for the experimental part:
Dynamic vapor sorption was measured using a vapor sorption analyzer under the following conditions. • Manufacturer: Surface Measurement Systems Ltd, UK • Model: DVS Adventure-I system • Analysis of crystalline form of obtained solid: HT-XRPD Relative Humidity Cycle:
Relative humidity was cycled from 40% to 95% (sorption), from 95% to 0% (desorption) and back to 40% (sorption 2). In each step, the relative humidity was changed to 10% at a constant temperature of 25° C. The weight equilibrium was set to a dm/dt of 0.002%/min.
Dynamic vapor sorption data (water sorption isotherms) were measured by a vapor sorption analyzer.

The nature of series [4]: Particle size analysis by laser diffraction particle analyzer. The conditions noted are these: dispersant heptane. The method, then: The particle size of the crystalline form was measured with a laser diffraction particle size analyzer under the following conditions. • Manufacturer: Malvern Instruments Limited, UK • Model: Mastersizer 2000 • Sampler: Hydro 2000 G/S Instrumental Conditions: • Particle reflection index (RI)): 1.52 • Dispersant: heptane • Absorbance: 0.1 • Refractive index of dispersant: 1.39 • Analysis model: general purpose • Sensitivity: enhanced • Absorption limit: 10-15% • Measurement time: 30 seconds (repeated three times per sample) • Agitation speed: 3500 RPM Sample Preparation:
About 150 mg of the sample was dissolved in 20 ml of 0.2% Span 85-containing heptane in a 50 ml beaker. The solution was sonicated for about 10 seconds and placed in a sampler, and when the absorption limit reached 10 to 15%, measurement was performed.
The particle size of crystalline form 3 of (−)-cibenzoline succinate prepared according to Example 4 was measured by a laser diffraction particle analyzer.

[5] abbreviates: default reference value (before storage).

SMILES strings stand for the structures. “Also recorded” adds a separate entry of the source.

As to `O=C(O)CCC(=O)O.c1ccc(C2(c3ccccc3)C[C@@H]2C2=NCCN2)cc1` [Crystalline form 1, (−)-cibenzoline succinate], in series [1], the Accelerated storage stability entry is “Unstable - presence of different”.
As for `O=C(O)CCC(=O)O.c1ccc(C2(c3ccccc3)C[C@@H]2C2=NCCN2)cc1` [Amorphous, (−)-cibenzoline succinate], the Accelerated storage stability entry in series [1] is recorded as “Unstable - presence of different”.
With `O=C(O)CCC(=O)O.c1ccc(C2(c3ccccc3)C[C@@H]2C2=NCCN2)cc1` [Crystalline form 2, (−)-cibenzoline succinate], the Accelerated storage stability entry in series [1] is on record as “Unstable - presence of different”.
Turning to `O=C(O)CCC(=O)O.c1ccc(C2(c3ccccc3)C[C@@H]2C2=NCCN2)cc1` [Crystalline form 3, (−)-cibenzoline succinate], in series [2] (setting [5]), the Chemical purity came to 100%, the DSC stood at 193.2 °C and the “TGA mass loss rate” value was 0.6%. Also, the “Long-term storage stability (crystalline form and chemical purity)” value in series [2] (stored at 60° C. for 4 weeks) is “stable without changes in the crystalline form and chemical purity”. Besides, in series [2] (stored at 60° C., week 1), the Chemical purity came to 100%, the DSC was 191.2 °C and the “TGA mass loss rate” value turned out to be 0.2%. Besides, in series [2] (stored at 60° C., week 4), the Chemical purity worked out at 100%, the DSC stood at 191.1 °C and the “TGA mass loss rate” value was 0.6%. Also, in series [3] (25° C., 80% relative humidity), the “water absorption rate at 80% relative humidity” value was found to be 0.2%. In series [3] (25° C., relative humidity 0% back to 40%), the “water absorbed in sorption 2” value is “absorbed almost no water”. The “water absorption rate in the sorption cycle” value in series [3] (25° C., relative humidity 40% to 95%) was “up to 0.3%”. The “release of absorbed water in the desorption cycle” value in series [3] (25° C., relative humidity 95% to 0%) was “completely released”. Besides, the “crystalline form of sample obtained after DVS (HT-XRPD)” value in series [3] (after DVS cycle) is listed as “maintained in Form D”. Besides, the “Hygroscopicity classification (European Pharmacopeia 5.0, 5.11)” value in series [3] (based on water absorption at 80% relative humidity) is recorded as “non-hygroscopic; also recorded: non-hydroscopic”. In series [4], the D10 was found to be 8.80 μm, the D50 is recorded as 30.44 μm and the D90 is reported as 60.72 μm. The compound further showed a D50 in series [4] (listed as crystalline form 3) of 30.44 μm. The Accelerated storage stability result in series [1] is “Stable - presence of only”. The Accelerated storage stability result in series [1] (listed as crystalline form 3) is given as “stable”.
In series [4], `O=C(O)CCC(=O)O.c1ccc(C2(c3ccccc3)C[C@@H]2C2=NCCN2)cc1` [Reference Example, (−)-cibenzoline succinate] showed a D10 of 17.10 μm, a D50 of 127.82 μm and a D90 of 307.56 μm.

(Values after patent publication US12486237B2, “Polymorphic form of (-)-cibenzoline succinate” (CELLTRION INC., priority 2020, dated 2025).)
